From publication PMC4770715, “LIM kinase inhibitors disrupt mitotic microtubule organization and impair tumor cell proliferation” (Oncotarget, 2015)

Assays:
Test in all cases: biochemical
Parameters in all cases: KINOMEscan active-site competition binding, percent of control (100 = no competition)
Settings in all cases: competition binding, percent control
ACVR2A = ACVR2A (Homo sapiens, UniProt P27037)
MYLK4 = MYLK4 (Homo sapiens, UniProt Q86YV6)
ITK = ITK (Homo sapiens, UniProt Q08881)
PCTK3 = molecular target: T1, PCTK3 (Homo sapiens, UniProt Q07002)
T1 construct: gene CDK18

HCK = HCK (Homo sapiens, UniProt P08631)
PIK3CD = PIK3CD (Homo sapiens, UniProt O00329)
PHKG2 = PHKG2 (Homo sapiens, UniProt P15735)
CDKL5 = CDKL5 (Homo sapiens, UniProt O76039)
TNIK = TNIK (Homo sapiens, UniProt Q9UKE5)
ABL1-nonphosphorylated = molecular target: T2, ABL1-nonphosphorylated (Homo sapiens, UniProt P00519)
T2 construct: nonphosphorylated

TBK1 = TBK1 (Homo sapiens, UniProt Q9UHD2)
EPHA2 = EPHA2 (Homo sapiens, UniProt P29317)
CDK11 = molecular target: T3, CDK11 (Homo sapiens, UniProt Q9BWU1)
T3 construct: gene CDK19

SRPK1 = SRPK1 (Homo sapiens, UniProt Q96SB4)
GSK3B = GSK3B (Homo sapiens, UniProt P49841)
CAMK1G = CAMK1G (Homo sapiens, UniProt Q96NX5)
LATS1 = LATS1 (Homo sapiens, UniProt O95835)
FYN = FYN (Homo sapiens, UniProt P06241)
CDKL1 = CDKL1 (Homo sapiens, UniProt Q00532)
CSNK2A1 = CSNK2A1 (Homo sapiens, UniProt P68400)
MYLK = MYLK (Homo sapiens, UniProt Q15746)
STK39 = STK39 (Homo sapiens, UniProt Q9UEW8)
NEK5 = NEK5 (Homo sapiens, UniProt Q6P3R8)

Chain of SRPK1 (Q96SB4 whole entry): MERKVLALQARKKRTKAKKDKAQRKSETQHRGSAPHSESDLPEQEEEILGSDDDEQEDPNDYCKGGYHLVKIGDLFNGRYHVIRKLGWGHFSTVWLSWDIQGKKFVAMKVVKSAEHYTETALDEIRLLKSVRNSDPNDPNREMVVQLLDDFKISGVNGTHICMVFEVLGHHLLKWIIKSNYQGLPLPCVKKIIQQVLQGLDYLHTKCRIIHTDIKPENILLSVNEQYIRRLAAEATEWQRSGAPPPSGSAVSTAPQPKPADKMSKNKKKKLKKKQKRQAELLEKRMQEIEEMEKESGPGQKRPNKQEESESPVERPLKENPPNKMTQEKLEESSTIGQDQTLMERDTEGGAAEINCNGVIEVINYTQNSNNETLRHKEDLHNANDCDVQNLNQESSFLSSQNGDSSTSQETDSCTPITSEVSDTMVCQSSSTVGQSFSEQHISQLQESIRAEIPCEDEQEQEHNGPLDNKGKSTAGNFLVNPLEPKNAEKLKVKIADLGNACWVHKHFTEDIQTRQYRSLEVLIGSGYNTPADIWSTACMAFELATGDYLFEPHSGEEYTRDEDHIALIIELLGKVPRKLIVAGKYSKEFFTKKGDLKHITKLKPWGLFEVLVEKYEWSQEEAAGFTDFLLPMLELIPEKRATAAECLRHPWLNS
T3 sequence (Q9BWU1 whole entry): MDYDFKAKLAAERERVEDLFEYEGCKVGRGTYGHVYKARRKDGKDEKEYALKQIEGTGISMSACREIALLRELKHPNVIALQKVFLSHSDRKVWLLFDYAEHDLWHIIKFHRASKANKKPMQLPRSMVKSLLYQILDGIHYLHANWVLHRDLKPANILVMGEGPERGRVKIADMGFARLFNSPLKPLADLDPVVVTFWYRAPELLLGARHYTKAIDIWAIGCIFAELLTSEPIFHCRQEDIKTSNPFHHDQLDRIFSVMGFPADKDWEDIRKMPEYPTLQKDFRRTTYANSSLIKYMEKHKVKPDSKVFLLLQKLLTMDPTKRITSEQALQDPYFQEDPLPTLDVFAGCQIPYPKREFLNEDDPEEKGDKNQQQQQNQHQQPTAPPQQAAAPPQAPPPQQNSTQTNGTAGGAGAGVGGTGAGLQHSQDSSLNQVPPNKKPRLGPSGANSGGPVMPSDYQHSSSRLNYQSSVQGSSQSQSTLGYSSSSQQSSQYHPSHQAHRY
Chain of ACVR2A (P27037 whole entry): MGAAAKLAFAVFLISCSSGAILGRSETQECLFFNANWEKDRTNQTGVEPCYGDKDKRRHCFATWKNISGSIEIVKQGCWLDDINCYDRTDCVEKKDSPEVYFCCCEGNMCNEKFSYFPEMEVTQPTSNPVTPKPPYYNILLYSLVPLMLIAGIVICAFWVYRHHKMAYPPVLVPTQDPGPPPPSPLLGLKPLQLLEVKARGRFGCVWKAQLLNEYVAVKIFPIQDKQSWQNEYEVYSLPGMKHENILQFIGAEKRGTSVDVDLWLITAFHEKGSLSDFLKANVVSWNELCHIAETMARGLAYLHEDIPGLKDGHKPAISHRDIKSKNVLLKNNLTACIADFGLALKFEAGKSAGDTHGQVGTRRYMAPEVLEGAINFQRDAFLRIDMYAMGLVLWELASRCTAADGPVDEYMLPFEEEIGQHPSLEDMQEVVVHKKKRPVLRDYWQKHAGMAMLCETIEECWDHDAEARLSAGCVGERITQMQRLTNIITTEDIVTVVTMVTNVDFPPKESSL
Chain of FYN (P06241 whole entry): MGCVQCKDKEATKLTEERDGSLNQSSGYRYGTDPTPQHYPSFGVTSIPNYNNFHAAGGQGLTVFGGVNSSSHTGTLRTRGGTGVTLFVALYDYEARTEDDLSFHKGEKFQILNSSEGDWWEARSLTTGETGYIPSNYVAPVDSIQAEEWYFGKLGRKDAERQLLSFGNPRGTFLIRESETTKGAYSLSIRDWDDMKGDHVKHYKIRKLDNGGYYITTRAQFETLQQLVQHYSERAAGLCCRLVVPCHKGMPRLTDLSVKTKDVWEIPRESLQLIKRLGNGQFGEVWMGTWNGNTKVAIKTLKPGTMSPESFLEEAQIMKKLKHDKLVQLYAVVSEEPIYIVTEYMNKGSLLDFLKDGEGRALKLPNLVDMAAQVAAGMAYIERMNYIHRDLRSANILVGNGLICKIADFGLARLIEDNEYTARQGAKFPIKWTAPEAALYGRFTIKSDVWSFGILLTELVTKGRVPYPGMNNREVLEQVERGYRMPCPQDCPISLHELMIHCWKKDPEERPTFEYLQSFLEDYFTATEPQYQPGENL
Chain of CDKL5 (O76039 whole entry): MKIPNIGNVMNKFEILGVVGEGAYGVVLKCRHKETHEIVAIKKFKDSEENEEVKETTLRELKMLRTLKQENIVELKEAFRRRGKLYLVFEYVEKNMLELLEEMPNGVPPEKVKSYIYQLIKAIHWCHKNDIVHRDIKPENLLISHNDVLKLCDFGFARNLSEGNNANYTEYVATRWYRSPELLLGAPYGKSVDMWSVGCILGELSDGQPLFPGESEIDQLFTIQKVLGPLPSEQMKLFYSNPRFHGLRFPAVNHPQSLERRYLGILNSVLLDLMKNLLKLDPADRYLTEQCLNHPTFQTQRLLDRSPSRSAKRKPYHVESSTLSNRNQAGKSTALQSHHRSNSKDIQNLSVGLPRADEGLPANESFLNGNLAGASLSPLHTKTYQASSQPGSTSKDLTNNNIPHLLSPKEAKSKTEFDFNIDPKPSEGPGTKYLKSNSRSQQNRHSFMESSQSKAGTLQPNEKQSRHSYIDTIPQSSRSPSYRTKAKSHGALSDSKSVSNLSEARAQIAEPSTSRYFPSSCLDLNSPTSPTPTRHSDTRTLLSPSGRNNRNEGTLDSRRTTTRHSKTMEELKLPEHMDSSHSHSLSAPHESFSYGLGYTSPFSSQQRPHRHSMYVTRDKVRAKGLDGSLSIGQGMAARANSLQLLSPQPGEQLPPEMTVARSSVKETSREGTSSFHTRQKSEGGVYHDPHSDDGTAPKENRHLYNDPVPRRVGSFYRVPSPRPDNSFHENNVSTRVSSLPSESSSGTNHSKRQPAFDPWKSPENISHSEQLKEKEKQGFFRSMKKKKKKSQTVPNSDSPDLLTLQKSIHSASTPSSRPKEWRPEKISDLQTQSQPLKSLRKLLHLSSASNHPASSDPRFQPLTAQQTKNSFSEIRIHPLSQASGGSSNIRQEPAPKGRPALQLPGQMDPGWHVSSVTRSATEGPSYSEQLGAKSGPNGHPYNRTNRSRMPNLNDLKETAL
Chain of PHKG2 (P15735 whole entry): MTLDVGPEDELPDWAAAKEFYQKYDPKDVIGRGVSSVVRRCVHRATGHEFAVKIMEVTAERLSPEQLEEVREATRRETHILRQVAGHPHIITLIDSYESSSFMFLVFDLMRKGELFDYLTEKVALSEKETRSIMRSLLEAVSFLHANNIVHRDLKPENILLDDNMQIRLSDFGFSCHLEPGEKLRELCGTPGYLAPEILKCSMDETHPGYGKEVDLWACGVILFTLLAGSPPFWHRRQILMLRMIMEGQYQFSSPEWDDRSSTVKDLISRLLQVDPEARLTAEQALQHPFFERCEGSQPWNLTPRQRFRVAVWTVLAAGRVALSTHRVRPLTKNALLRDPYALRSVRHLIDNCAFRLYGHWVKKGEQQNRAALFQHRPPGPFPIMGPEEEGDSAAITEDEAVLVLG
Chain of CDKL1 (Q00532 whole entry): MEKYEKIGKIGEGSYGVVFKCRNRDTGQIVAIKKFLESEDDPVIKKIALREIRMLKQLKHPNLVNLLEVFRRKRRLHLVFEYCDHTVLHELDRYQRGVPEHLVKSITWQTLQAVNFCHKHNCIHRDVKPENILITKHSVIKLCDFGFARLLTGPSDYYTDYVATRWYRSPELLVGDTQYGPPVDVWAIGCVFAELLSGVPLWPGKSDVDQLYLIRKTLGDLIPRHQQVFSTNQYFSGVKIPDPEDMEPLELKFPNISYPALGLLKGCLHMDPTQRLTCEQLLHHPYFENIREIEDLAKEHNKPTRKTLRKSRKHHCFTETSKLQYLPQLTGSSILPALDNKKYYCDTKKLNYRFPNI
Chain of PIK3CD (O00329 whole entry): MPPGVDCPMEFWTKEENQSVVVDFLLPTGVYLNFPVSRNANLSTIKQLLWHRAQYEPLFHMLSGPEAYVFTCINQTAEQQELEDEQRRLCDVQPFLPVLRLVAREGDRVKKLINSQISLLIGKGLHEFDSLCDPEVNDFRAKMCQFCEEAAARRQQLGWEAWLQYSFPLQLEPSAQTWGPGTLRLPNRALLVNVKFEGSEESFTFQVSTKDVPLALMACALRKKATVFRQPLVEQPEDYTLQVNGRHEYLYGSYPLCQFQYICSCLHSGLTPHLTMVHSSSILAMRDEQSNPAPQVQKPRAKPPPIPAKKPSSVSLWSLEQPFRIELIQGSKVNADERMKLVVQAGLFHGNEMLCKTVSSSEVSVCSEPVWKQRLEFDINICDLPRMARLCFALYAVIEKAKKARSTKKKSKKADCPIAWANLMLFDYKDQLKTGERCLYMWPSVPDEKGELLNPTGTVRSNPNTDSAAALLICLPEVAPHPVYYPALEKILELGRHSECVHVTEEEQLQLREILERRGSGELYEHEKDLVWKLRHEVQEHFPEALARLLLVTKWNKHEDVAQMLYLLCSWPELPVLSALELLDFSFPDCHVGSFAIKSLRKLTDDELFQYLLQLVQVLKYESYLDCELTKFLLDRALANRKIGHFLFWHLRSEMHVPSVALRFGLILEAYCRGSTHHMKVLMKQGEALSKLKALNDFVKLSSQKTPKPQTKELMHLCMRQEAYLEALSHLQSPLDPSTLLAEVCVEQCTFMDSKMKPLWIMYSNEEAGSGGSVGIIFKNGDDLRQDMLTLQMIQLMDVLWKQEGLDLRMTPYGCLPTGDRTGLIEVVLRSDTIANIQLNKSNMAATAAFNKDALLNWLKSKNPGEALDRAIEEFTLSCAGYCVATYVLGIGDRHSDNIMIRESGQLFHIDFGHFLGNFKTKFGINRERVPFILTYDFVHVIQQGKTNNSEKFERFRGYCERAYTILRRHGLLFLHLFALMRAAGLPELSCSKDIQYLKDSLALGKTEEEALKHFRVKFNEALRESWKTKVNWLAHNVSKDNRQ

COc1ccc(-c2cnccc2-c2cnc(NC(=O)C(C)C)s2)c(C(F)(F)F)c1 [CRT0105446, N-{5-[3-(4-Methoxy-2-trifluoromethyl-phenyl)-pyridin-4-yl]-hiazol-2-yl}-isobutyramide]
remaining binding at 10 µM (ACVR2A): 74% | remaining binding at 10 µM (MYLK4): 71% | remaining binding at 10 µM (ITK): 100% | remaining binding at 10 µM (PCTK3): 7.7% | remaining binding at 10 µM (HCK): 100% | remaining binding at 10 µM (PIK3CD): 100% | remaining binding at 10 µM (PHKG2): 92% | remaining binding at 10 µM (CDKL5): 100% | remaining binding at 10 µM (TNIK): 89% | remaining binding at 10 µM (ABL1-nonphosphorylated): 82% | remaining binding at 10 µM (TBK1): 82% | remaining binding at 10 µM (EPHA2): 100% | remaining binding at 10 µM (CDK11): 34% | remaining binding at 10 µM (SRPK1): 100% | remaining binding at 10 µM (GSK3B): 82% | remaining binding at 10 µM (CAMK1G): 99% | remaining binding at 10 µM (LATS1): 91% | remaining binding at 10 µM (FYN): 99% | remaining binding at 10 µM (CDKL1): 80% | remaining binding at 10 µM (CSNK2A1): 95% | remaining binding at 10 µM (MYLK): 100% | remaining binding at 10 µM (STK39): 100% | remaining binding at 10 µM (NEK5): 99%

Cc1ccc(-c2cnccc2-c2cnc(Nc3ccc(O)cc3)s2)c(Cl)c1 [CRT0105950, 4-{5-[3-(2-Chloro-4-methyl-phenyl)-pyridin-4-yl]-thiazol-2-ylamino}-phenol]
remaining binding at 10 µM (ACVR2A): 45% | remaining binding at 10 µM (MYLK4): 9.4% | remaining binding at 10 µM (ITK): 61% | remaining binding at 10 µM (PCTK3): 68% | remaining binding at 10 µM (HCK): 94% | remaining binding at 10 µM (PIK3CD): 100% | remaining binding at 10 µM (PHKG2): 52% | remaining binding at 10 µM (CDKL5): 99% | remaining binding at 10 µM (TNIK): 10% | remaining binding at 10 µM (ABL1-nonphosphorylated): 43% | remaining binding at 10 µM (TBK1): 52% | remaining binding at 10 µM (EPHA2): 70% | remaining binding at 10 µM (CDK11): 2.3% | remaining binding at 10 µM (SRPK1): 74% | remaining binding at 10 µM (GSK3B): 86% | remaining binding at 10 µM (CAMK1G): 57% | remaining binding at 10 µM (LATS1): 23% | remaining binding at 10 µM (FYN): 49% | remaining binding at 10 µM (CDKL1): 77% | remaining binding at 10 µM (CSNK2A1): 60% | remaining binding at 10 µM (MYLK): 28% | remaining binding at 10 µM (STK39): 100% | remaining binding at 10 µM (NEK5): 65%
